From patent publication US20180037923A1, “SELECTIVE DETECTION OF LACTIC ACID AND/OR ACETIC ACID BACTERIA OR OF FUNGI” (priority 2015, published 2018)

How the values were obtained:
Sacch. Diastaticus IFBM = assay: Agar plate count after contact with antifungal; format: cell-based, Saccharomyces diastaticus
Excerpt: (§1) The word “bactericide” refers to a treatment having the effect of reducing a bacterial population by at least three decimal logarithms of colony forming units/ml on an agar plate count of a sample after treatment.
(§2) The toxicity results on yeasts and on bacteria are presented in the table below displaying the duration of exposure of the fungal flora to molecule A1 and the associated fluorescence measurement: yeasts lysis after exposure to the antifungal was confirmed by microscopic examination and methylene blue staining.
(§3) The words “contact time” refer to below, the time of exposure of the microorganisms to the fungicidal product, here molecule A1.
(§4) Below: “No CFU” is the abbreviation for “No Colony forming unit on agar plate count”.
(§5) The toxicity results on yeasts and on bacteria are presented in the table below displaying the duration of exposure of the fungal flora to the molecule A2 and are obtained by enumeration on MRS agar media.

[1] = test system: lactic acid bacteria and acetic acid bacteria; assay: Bactericidal action on the bacterial flora (conclusion from agar plate counts); format: cell-based; conditions: for Bactericidal action on lactic acid and acetic acid flora: bactericide = reduction by at least three decimal logarithms of CFU/ml
Excerpt: as §1, §2, §5

G. oxydans DSM 7145 = assay: Agar plate count after contact with antifungal; format: cell-based, Gluconobacter oxydans
Excerpt: as §1, §2, §3, §4, §5

[2] = test system: Lactobacillus brevis IFBM; assay: Agar plate count after contact with antifungal; format: cell-based; conditions: count at contact time 0 h 7.10^5 CFU/mL
Excerpt: as §1, §2, §3, §4, §5

Dekkera anomala IFBM = assay: Agar plate count after contact with antifungal; format: cell-based
Excerpt: as §1, §2, §3, §4, §5

[3] = test system: Acetobacter aceti DSM 3508; assay: Agar plate count after contact with antifungal; format: cell-based; conditions: count at contact time 0 h 2.9.10^7 CFU/mL
Excerpt: as §1, §2, §3, §4, §5

[4] = test system: Lactobacillus lindneri DSM 20690; assay: Agar plate count after contact with antifungal; format: cell-based
Excerpt: as §1, §2, §3, §4, §5

[5] = test system: Lactobacillus paracasei IFBM; assay: Agar plate count after contact with antifungal; format: cell-based; conditions: count at contact time 0 h 1.4.10^7 CFU/mL
Excerpt: as §1, §2, §3, §4, §5

[6] = test system: Lactobacillus parabuchneri DSM 5708; assay: Agar plate count after contact with antifungal; format: cell-based; conditions: count at contact time 0 h 1.4.10^6 CFU/mL
Excerpt: as §1, §2, §3, §4, §5

Pedicoccus damnosus IFBM = assay: Agar plate count after contact with antifungal; format: cell-based
Excerpt: as §1, §2, §3, §4, §5

[7] = test system: Oenococcus oeni DSM 20252; assay: Agar plate count after contact with antifungal; format: cell-based
Excerpt: as §1, §2, §3, §4, §5

[8] = test system: Brettanomyces bruxellensis Wyeast labs; assay: Agar plate count after contact with antifungal; format: cell-based
Excerpt: as §1, §2, §3, §4, §5

[9] = test system: Sacch. Cerevisae Saflager S23; assay: Agar plate count after contact with antifungal; format: cell-based, Saccharomyces cerevisae; conditions: 400 mg/L
Excerpt: as §1, §2, §3, §4, §5

[10] = test system: Sacch. Cerevisae DSM 70449; assay: Agar plate count after contact with antifungal; format: cell-based, Saccharomyces cerevisae; conditions: for Agar plate count contact time 4 h: 400 mg/L
Excerpt: as §1, §2, §3, §4, §5

[11] = test system: Zyggosaccharomyces bailii; assay: Agar plate count after contact with antifungal; format: cell-based; conditions: 400 mg/L
Excerpt: as §1, §2, §3, §4, §5

[12] = test system: yeast populations versus lactic acid and acetic acid bacteria; assay: Concentration threshold for being antifungal while non-bactericidal; format: cell-based; conditions: estimated
Protocol: It is estimated that for the molecule A1 the concentration threshold allowing to obtain the effect of the invention of being non-bactericidal for the lactic acid and acetic acid bacteria while being antifungal for the yeast populations is comprised within 50 mg/l or 50 mg/l and 100 mg/l.
In order to determine whether a particular molecule is suitable for the invention, a person skilled in the art may constitute a first list of antifungal products and a second list of non-bactericidal products for bacteria and select the products appearing in the first and second list for which the fungicidal activity intervenes prior to the bactericidal activity. However, an experimental verification of the fungicidal activity will be necessary to determine the minimum antifungal concentration per mg/L or in microgram per milliliter depending on the targeted fungal flora.

[13] = 200 mg/L, count at contact time 0 h 8.10^8 CFU/mL
[14] = 400 mg/L, count at contact time 0 h 8.10^7 CFU/mL
[15] = 200 mg/L, count at contact time 0 h 6.10^6 CFU/mL
[16] = 400 mg/L, count at contact time 0 h 6.10^5 CFU/mL
[17] = 200 mg/L, count at contact time 0 h 7.2.10^5 CFU/mL
[18] = 400 mg/L, count at contact time 0 h 1.1.10^5 CFU/mL
[19] = 200 mg/L, count at contact time 0 h 4.10^9 CFU/mL
[20] = 400 mg/L, count at contact time 0 h 4.10^7 CFU/mL
[21] = count at contact time 0 h 2.10^5 CFU/mL

## C[C@@H](c1ncncc1F)[C@](O)(Cn1cncn1)c1ccc(F)cc1F [Molecule A3, voriconazole]
Sacch. Diastaticus IFBM; 400 mg/L, count at contact time 0 h 1.10^4 CFU/mL
  Agar plate count contact time 18 h: No CFU
[1]; doses of 200 mg/liter
  Bactericidal action on lactic acid and acetic acid flora: neither bactericidal for the lactic acid flora nor bactericidal for the acetic acid flora
[1]; doses of 400 mg/liter
  Bactericidal action on lactic acid and acetic acid flora: neither bactericidal for the lactic acid flora nor bactericidal for the acetic acid flora
G. oxydans DSM 7145; [13]
  Agar plate count contact time 18 h: 1.10^9 CFU/mL
G. oxydans DSM 7145; [14]
  Agar plate count contact time 18 h: 1.10^8 CFU/mL
[2]; 200 mg/L
  Agar plate count contact time 18 h: 1.10^6 CFU/mL
[2]; 400 mg/L
  Agar plate count contact time 18 h: 1.10^6 CFU/mL
Dekkera anomala IFBM; 400 mg/L, count at contact time 0 h 7.10^5 CFU/mL
  Agar plate count contact time 18 h: No CFU
[3]; 200 mg/L
  Agar plate count contact time 18 h: 6.10^6 CFU/mL
[3]; 400 mg/L
  Agar plate count contact time 18 h: 4.10^7 CFU/mL
[4]; [15]
  Agar plate count contact time 18 h: 1.10^6 CFU/mL
[4]; [16]
  Agar plate count contact time 18 h: 7.10^4 CFU/mL
[5]; 200 mg/L
  Agar plate count contact time 18 h: 5.10^7 CFU/mL
[5]; 400 mg/L
  Agar plate count contact time 18 h: 2.10^7 CFU/mL
[6]; 200 mg/L
  Agar plate count contact time 18 h: 5.10^5 CFU/mL
[6]; 400 mg/L
  Agar plate count contact time 18 h: 6.10^5 CFU/mL
Pedicoccus damnosus IFBM; [17]
  Agar plate count contact time 18 h: 1.5.10^5 CFU/mL
Pedicoccus damnosus IFBM; [18]
  Agar plate count contact time 18 h: 2.10^4 CFU/mL
[7]; [19]
  Agar plate count contact time 18 h: 6.10^9 CFU/mL
[7]; [20]
  Agar plate count contact time 18 h: 1.10^8 CFU/mL
[8]; [15]
  Agar plate count contact time 18 h: 9.10^1 CFU/mL
[8]; 400 mg/L, count at contact time 0 h 8.10^4 CFU/mL
  Agar plate count contact time 18 h: No CFU

## CC[C@H](C)C[C@H](C)CCCCCCCCC(=O)N[C@H]1C[C@@H](O)[C@@H](NCCN)NC(=O)[C@@H]2[C@@H](O)CCN2C(=O)[C@H]([C@H](O)CCN)NC(=O)[C@H]([C@H](O)[C@@H](O)c2ccc(O)cc2)NC(=O)[C@@H]2C[C@@H](O)CN2C(=O)[C@H]([C@@H](C)O)NC1=O [Molecule A5, caspofungin]
Sacch. Diastaticus IFBM; 400 mg/L, count at contact time 0 h 4.10^4 CFU/mL
  Agar plate count contact time 4 h: No CFU
[9]; count at contact time 0 h 3.10^5 CFU/mL
  Agar plate count contact time 4 h: No CFU
[10]; [21]
  Agar plate count contact time 4 h: No CFU
[1]; doses of 200 mg/liter
  Bactericidal action on acetic acid bacteria and the lactic acid bacteria oenooccus oeni: non-bactericidal
[1]; doses of 400 mg/liter
  Bactericidal action on acetic acid bacteria and the lactic acid bacteria oenooccus oeni: non-bactericidal
G. oxydans DSM 7145; [13]
  Agar plate count contact time 4 h: 1.10^9 CFU/mL
G. oxydans DSM 7145; [14]
  Agar plate count contact time 4 h: 9.10^7 CFU/mL
[2]; 200 mg/L
  Agar plate count contact time 4 h: 1.10^2 CFU/mL
[2]; 400 mg/L
  Agar plate count contact time 4 h: 2.10^2 CFU/mL
Dekkera anomala IFBM; 400 mg/L, count at contact time 0 h 1.4.10^4 CFU/mL
  Agar plate count contact time 4 h: No CFU
[3]; 200 mg/L
  Agar plate count contact time 4 h: 1.10^5 CFU/mL
[3]; 400 mg/L
  Agar plate count contact time 4 h: 2.10^6 CFU/mL
[4]; [15]
  Agar plate count contact time 4 h: 9.10^1 CFU/mL
[4]; [16]
  Agar plate count contact time 4 h: 1.10^2 CFU/mL
[5]; 200 mg/L
  Agar plate count contact time 4 h: 1.1.10^4 CFU/mL
[5]; 400 mg/L
  Agar plate count contact time 4 h: 1.10^2 CFU/mL
[6]; 200 mg/L
  Agar plate count contact time 4 h: No CFU
[6]; 400 mg/L
  Agar plate count contact time 4 h: No CFU
Pedicoccus damnosus IFBM; [17]
  Agar plate count contact time 4 h: No CFU
Pedicoccus damnosus IFBM; [18]
  Agar plate count contact time 4 h: No CFU
[7]; [19]
  Agar plate count contact time 4 h: 6.10^9 CFU/mL
[7]; [20]
  Agar plate count contact time 4 h: 5.10^7 CFU/mL
[8]; [15]
  Agar plate count contact time 4 h: No CFU
[8]; 400 mg/L, count at contact time 0 h 1.7.10^4 CFU/mL
  Agar plate count contact time 4 h: No CFU
[11]; [21]
  Agar plate count contact time 4 h: No CFU

## CCC(C)(C)c1ccc(CC(C)CN2C[C@@H](C)O[C@@H](C)C2)cc1 (some centres unmarked) [Molecule A2, Amorolfine]
Sacch. Diastaticus IFBM; 400 mg/L, count at contact time 0 h 2.10^6 CFU/mL
  Agar plate count contact time 4 h: No CFU
[9]; count at contact time 0 h 3.2.10^5 CFU/mL
  Agar plate count contact time 4 h: No CFU
[10]; count at contact time 0 h 5.8.10^5 CFU/mL
  Agar plate count contact time 4 h: No CFU
[1]; doses of 200 mg/liter
  Bactericidal action on lactic acid and acetic acid flora: neither bactericidal for the lactic acid flora nor bactericidal for the acetic acid flora
[1]; doses of 400 mg/liter
  Bactericidal action on lactic acid and acetic acid flora: neither bactericidal for the lactic acid flora nor bactericidal for the acetic acid flora
G. oxydans DSM 7145; [13]
  Agar plate count contact time 4 h: 1.10^9 CFU/mL
G. oxydans DSM 7145; [14]
  Agar plate count contact time 4 h: 9.10^7 CFU/mL
[2]; 200 mg/L
  Agar plate count contact time 4 h: 1.10^6 CFU/mL
[2]; 400 mg/L
  Agar plate count contact time 4 h: 8.10^5 CFU/mL
Dekkera anomala IFBM; 400 mg/L, count at contact time 0 h 5.10^3 CFU/mL
  Agar plate count contact time 4 h: No CFU
[3]; 200 mg/L
  Agar plate count contact time 4 h: 6.10^6 CFU/mL
[3]; 400 mg/L
  Agar plate count contact time 4 h: 9.10^6 CFU/mL
[4]; [15]
  Agar plate count contact time 4 h: 1.10^6 CFU/mL
[4]; [16]
  Agar plate count contact time 4 h: 5.10^5 CFU/mL
[5]; 200 mg/L
  Agar plate count contact time 4 h: 5.10^7 CFU/mL
[5]; 400 mg/L
  Agar plate count contact time 4 h: 4.10^7 CFU/mL
[6]; 200 mg/L
  Agar plate count contact time 4 h: 5.10^5 CFU/mL
[6]; 400 mg/L
  Agar plate count contact time 4 h: 3.10^4 CFU/mL
Pedicoccus damnosus IFBM; [17]
  Agar plate count contact time 4 h: 1.5.10^5 CFU/mL
Pedicoccus damnosus IFBM; [18]
  Agar plate count contact time 4 h: 1.10^4 CFU/mL
[7]; [19]
  Agar plate count contact time 4 h: 6.10^9 CFU/mL
[7]; [20]
  Agar plate count contact time 4 h: 5.10^7 CFU/mL
[8]; [15]
  Agar plate count contact time 4 h: No CFU
[8]; 400 mg/L, count at contact time 0 h 1.8.10^6 CFU/mL
  Agar plate count contact time 4 h: No CFU
[11]; count at contact time 0 h 2.2.10^6 CFU/mL
  Agar plate count contact time 4 h: No CFU

## C[C@@H]1C[C@@H]([C@H](O)CC2CC(=O)NC(=O)C2)C(=O)[C@@H](C)C1 [Molecule A4, cycloheximide]
Sacch. Diastaticus IFBM; Test No 2: 400 mg/L, count at contact time 0 h 4.10^4 CFU/mL
  Agar plate count contact time 18 h: No CFU
[12]
  Concentration threshold allowing to obtain the effect of the invention: greater than 300 mg/l
[10]; Test No 2: 400 mg/L, count at contact time 0 h 5.10^4 CFU/mL
  Agar plate count contact time 18 h: No CFU
[1]; doses of 400 mg/liter or more
  Effect on bacteria cell integrity: preserves bacteria cell integrity
G. oxydans DSM 7145; [14]
  Agar plate count contact time 18 h: 1.10^8 CFU/mL
[2]; 400 mg/L
  Agar plate count contact time 18 h: 2.10^6 CFU/mL
Dekkera anomala IFBM; Test No 2: 400 mg/L, count at contact time 0 h 1.10^5 CFU/mL
  Agar plate count contact time 18 h: 1.2.10^1 CFU/mL
[3]; 400 mg/L
  Agar plate count contact time 18 h: 9.10^7 CFU/mL
[4]; [16]
  Agar plate count contact time 18 h: 1.10^5 CFU/mL
[5]; 400 mg/L
  Agar plate count contact time 18 h: 3.10^7 CFU/mL
[6]; 400 mg/L
  Agar plate count contact time 18 h: 6.10^6 CFU/mL
Pedicoccus damnosus IFBM; [18]
  Agar plate count contact time 18 h: 4.10^4 CFU/mL
[7]; [20]
  Agar plate count contact time 18 h: 1.10^8 CFU/mL
[8]; Test No 2: 400 mg/L, count at contact time 0 h 7.3.10^5 CFU/mL
  Agar plate count contact time 18 h: No CFU
